Experimental findings from ChEMBL document CHEMBL5357082, “Identification and Optimization of Small Molecule Pyrazolopyrimidine TLR7 Agonists for Applications in Immuno-oncology” (ACS Med Chem Lett, 2024) are described below.

One may read the IC50 as the concentration that inhibits the measured activity by half. By EC50 is commonly meant the midpoint of the concentration-response curve. A higher EC50 goes with weaker potency.

The nature of data set [1]: Metabolic stability in human liver microsomes assessed as compound remaining at 0.5 uM incubated for 10 mins in presence of NADPH by UV absorbance based assay. The data set is classed as ADME, Microsome. To be noted: read-out: Stability.
Data set [2] in a line: Metabolic stability in mouse liver microsomes assessed as compound remaining at 0.5 uM incubated for 10 mins in presence of NADPH by UV absorbance based assay. The data set is classed as ADME, Microsome. To be noted: read-out: Stability. In general terms: Liver microsomes are a subcellular fraction often used to study metabolism.
Data set [3] deals with Voltage-gated inwardly rectifying potassium channel KCNH2 (Homo sapiens, UniProt Q12809). Briefly: Inhibition of hERG. Format: toxicity. For orientation: The hERG channel carries a current that helps repolarise heart muscle cells.
Voltage-gated inwardly rectifying potassium channel KCNH2, sequence (Q12809 whole entry): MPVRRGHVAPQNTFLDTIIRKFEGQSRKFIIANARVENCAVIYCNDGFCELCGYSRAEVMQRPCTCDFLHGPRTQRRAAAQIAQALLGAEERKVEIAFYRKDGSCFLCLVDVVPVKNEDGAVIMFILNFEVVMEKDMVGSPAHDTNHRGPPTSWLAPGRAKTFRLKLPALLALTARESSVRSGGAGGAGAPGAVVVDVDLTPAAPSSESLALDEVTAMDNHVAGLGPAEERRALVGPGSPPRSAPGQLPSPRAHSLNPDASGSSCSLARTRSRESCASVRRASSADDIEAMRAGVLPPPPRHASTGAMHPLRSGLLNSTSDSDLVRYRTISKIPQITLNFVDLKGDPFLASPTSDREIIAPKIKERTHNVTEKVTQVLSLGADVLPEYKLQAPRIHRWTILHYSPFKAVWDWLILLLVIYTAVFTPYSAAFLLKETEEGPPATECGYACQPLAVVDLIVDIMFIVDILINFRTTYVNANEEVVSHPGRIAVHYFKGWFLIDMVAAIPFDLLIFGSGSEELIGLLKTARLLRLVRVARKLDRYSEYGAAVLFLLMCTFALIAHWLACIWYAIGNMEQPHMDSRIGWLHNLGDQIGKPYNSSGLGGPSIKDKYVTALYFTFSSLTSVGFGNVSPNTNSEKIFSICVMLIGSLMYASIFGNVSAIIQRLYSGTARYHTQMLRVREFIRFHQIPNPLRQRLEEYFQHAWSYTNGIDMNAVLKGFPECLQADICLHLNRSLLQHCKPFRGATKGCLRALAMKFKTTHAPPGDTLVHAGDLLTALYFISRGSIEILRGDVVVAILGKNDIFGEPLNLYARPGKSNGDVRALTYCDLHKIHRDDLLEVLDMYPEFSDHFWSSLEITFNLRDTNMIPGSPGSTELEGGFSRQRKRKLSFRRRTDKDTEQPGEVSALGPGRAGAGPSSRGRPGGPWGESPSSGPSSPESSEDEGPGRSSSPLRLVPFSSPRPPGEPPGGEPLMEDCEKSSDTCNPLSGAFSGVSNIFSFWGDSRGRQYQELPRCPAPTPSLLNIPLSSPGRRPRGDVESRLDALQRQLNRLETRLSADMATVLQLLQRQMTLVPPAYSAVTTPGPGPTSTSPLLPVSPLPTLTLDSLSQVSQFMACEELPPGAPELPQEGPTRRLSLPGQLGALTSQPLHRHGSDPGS
The nature of data set [4]: Cytotoxicity against PHA-activated T-cells (unknown origin) assessed as inhibition of IL-2 induced cell proliferation measured after 72 hrs by MTS assay. Format: toxicity, cell-based.
The next data set addresses T1, Cytochrome P450 1A2 (Homo sapiens, UniProt P05177).
T1 sequence (P05177 whole entry): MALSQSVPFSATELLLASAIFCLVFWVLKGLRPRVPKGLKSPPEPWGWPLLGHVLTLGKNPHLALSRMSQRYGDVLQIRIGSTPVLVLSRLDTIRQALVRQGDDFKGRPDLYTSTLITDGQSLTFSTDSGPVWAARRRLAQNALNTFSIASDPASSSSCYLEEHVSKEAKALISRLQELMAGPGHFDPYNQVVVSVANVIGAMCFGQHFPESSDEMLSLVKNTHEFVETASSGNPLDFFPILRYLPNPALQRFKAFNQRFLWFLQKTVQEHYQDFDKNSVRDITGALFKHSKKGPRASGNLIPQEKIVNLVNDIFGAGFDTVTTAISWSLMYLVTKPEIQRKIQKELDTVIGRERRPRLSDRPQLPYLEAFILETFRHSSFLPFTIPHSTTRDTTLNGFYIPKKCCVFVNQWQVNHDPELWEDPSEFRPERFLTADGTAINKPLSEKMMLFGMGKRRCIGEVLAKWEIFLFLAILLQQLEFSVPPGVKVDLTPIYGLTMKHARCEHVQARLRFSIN
The data set is described as follows: Inhibition of CYP1A2 (unknown origin). The data set is classed as ADME.

The target in the next data set is Cytochrome P450 2C19 (Homo sapiens, UniProt P33261). The data set is described as follows: Inhibition of CYP2C19 (unknown origin). Format: ADME.
Cytochrome P450 2C19, sequence (P33261 whole entry): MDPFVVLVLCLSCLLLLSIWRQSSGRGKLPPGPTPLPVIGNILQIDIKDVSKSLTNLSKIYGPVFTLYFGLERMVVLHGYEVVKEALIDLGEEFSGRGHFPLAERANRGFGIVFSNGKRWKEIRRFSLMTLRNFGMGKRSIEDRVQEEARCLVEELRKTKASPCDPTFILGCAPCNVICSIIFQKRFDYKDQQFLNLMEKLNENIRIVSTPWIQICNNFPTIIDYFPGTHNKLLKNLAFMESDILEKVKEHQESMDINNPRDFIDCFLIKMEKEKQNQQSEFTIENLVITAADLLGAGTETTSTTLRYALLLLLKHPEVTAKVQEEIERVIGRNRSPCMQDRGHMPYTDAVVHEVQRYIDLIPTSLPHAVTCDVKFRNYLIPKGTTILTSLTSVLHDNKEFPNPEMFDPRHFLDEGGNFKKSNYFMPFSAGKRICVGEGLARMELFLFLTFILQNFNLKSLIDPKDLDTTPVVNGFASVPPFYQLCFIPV
Another data set deals with Cytochrome P450 2C9 (Homo sapiens, UniProt P11712). Briefly: Inhibition of CYP2C9 (unknown origin). The data set is classed as ADME.
Cytochrome P450 2C9, sequence (P11712 whole entry): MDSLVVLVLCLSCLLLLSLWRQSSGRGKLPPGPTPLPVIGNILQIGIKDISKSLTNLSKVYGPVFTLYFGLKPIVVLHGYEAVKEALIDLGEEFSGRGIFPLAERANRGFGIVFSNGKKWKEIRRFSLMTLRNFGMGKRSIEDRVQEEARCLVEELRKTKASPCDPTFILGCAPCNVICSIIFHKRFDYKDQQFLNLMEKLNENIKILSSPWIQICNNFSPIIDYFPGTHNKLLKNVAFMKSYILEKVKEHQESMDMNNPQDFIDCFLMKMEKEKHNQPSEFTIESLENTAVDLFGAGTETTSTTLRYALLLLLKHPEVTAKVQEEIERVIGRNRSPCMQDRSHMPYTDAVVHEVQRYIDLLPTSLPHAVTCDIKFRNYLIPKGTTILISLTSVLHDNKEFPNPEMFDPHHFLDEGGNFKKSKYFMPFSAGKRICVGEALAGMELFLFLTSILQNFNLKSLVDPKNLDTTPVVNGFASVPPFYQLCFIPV
In another data set the target is Cytochrome P450 2D6 (Homo sapiens, UniProt P10635). The data set is described as follows: Inhibition of CYP2D6 (unknown origin). Format: ADME.
Cytochrome P450 2D6, sequence (P10635 whole entry): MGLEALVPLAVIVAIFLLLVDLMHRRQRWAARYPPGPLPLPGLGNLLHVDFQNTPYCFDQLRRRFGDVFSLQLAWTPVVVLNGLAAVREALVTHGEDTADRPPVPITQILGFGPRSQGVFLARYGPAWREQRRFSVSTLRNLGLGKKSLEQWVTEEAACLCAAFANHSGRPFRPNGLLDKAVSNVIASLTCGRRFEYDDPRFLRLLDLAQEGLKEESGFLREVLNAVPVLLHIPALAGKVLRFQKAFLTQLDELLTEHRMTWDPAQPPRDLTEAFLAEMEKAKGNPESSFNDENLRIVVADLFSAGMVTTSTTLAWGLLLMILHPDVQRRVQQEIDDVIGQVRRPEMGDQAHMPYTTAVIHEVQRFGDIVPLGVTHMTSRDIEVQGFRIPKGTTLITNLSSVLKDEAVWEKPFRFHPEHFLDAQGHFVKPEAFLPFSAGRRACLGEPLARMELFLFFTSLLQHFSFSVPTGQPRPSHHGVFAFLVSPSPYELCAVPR
The target in data set [5] is T2, Cytochrome P450 3A4 (Homo sapiens, UniProt P08684). The data set is described as follows: Inhibition of CYP3A4 (unknown origin) using BFC as substrate. The data set is classed as ADME.
T2 sequence (P08684 whole entry): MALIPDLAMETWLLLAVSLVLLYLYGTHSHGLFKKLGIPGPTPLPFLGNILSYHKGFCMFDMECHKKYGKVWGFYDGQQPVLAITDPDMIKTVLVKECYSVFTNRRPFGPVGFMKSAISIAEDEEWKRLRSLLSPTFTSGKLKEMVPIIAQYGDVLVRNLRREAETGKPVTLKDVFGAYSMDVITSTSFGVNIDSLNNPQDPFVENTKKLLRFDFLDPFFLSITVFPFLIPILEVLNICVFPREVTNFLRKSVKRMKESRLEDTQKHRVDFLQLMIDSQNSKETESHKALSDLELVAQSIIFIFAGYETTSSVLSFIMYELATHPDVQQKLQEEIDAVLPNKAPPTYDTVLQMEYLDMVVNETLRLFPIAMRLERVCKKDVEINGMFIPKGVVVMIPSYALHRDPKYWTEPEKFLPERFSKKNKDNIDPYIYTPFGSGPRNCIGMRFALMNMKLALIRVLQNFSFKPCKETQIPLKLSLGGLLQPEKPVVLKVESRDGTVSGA
For another data set, the target named is T3, Cytochrome P450 2C8 (Homo sapiens, UniProt P10632).
T3 sequence (P10632 whole entry): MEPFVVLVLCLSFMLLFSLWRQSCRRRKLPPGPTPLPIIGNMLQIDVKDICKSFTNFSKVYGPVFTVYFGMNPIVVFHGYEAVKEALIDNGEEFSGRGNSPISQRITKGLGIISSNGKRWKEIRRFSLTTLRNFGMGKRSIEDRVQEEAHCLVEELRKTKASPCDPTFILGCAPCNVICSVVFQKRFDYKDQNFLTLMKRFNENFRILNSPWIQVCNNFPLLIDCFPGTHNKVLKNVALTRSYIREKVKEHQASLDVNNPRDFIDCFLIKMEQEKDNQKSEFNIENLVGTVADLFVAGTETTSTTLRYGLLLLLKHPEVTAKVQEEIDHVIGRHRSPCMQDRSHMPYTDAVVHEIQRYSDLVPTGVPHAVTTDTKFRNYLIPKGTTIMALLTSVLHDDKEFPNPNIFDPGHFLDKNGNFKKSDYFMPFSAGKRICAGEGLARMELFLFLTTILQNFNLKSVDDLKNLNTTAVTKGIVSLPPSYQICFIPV
Briefly: Inhibition of CYP2C8 (unknown origin). Format: ADME.

Data set [6] has as its target T2, Cytochrome P450 3A4. The data set is described as follows: Inhibition of CYP3A4 (unknown origin) using BFC as substrate preincubated with compound followed by substrate addition at 5 mins. The data set is classed as ADME.
A further data set addresses T4, Toll-like receptor 7 (Mus musculus, UniProt P58681).
T4 sequence (P58681 whole entry): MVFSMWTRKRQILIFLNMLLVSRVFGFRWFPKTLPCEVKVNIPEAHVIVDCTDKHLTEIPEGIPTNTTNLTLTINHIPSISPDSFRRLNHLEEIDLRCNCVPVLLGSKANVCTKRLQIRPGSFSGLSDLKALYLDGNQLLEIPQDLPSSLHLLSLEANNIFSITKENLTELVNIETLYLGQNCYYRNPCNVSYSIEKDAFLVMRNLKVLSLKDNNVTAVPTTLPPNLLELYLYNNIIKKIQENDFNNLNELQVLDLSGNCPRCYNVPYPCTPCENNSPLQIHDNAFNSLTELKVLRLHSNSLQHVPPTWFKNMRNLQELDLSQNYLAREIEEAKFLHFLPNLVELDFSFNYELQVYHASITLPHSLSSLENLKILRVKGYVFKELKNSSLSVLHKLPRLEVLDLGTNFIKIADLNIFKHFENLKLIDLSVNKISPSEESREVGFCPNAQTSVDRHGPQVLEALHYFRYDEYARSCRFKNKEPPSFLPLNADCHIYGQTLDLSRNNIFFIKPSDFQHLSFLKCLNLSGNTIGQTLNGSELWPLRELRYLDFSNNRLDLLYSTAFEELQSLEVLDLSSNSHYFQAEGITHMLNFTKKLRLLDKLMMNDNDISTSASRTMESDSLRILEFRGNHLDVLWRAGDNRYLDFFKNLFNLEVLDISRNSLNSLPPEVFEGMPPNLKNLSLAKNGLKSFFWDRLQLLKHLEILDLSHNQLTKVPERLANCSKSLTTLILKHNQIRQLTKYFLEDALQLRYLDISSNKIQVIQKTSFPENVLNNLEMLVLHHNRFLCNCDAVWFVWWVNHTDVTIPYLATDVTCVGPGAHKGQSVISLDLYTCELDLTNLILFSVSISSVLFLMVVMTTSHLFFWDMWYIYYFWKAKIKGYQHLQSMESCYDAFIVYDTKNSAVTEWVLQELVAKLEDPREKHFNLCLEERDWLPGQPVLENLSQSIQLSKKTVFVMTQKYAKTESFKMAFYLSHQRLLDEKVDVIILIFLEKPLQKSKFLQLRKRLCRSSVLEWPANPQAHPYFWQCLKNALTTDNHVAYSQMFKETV
Briefly: Agonist activity at mouse TLR7.

Data set [7] concerns the target T2, Cytochrome P450 3A4. Briefly: Inhibition of CYP3A4 (unknown origin) using BFC as substrate preincubated with compound followed by substrate addition at 30 mins. The data set is classed as ADME.

The structures appear in SMILES notation.

Regarding `CCCCNc1nc(N)nc2cnn(Cc3ccc(CNC4CCC4)cc3OC)c12`, the remaining at 10 min, 0.5 µM in data set [1] was determined as 45%; in data set [2], 3%. For the same molecule, the IC50 in data set [3] is 24 µM; against Cytochrome P450 1A2, above 20 µM; against Cytochrome P450 2C19 it was above 20 µM; on Cytochrome P450 2C9, above 20 µM; against Cytochrome P450 2D6, 1.12 µM; against Cytochrome P450 3A4 [5], 8.14 µM. Also, the IC50 against Cytochrome P450 2C8 is above 20 µM; on Cytochrome P450 3A4 [6], 14.2 µM. In [4], the IC50 at 72 h turned out to be 15 µM.
The molecule `CCCCNc1nc(N)nc2cnn(Cc3ccc(C4CCNCC4)cc3OC)c12` showed an EC50 on Toll-like receptor 7 of 0.074 µM. Also, the remaining at 10 min, 0.5 µM in data set [1] worked out at 89%; in data set [2] it was 54%. The IC50 in data set [3] is 4 µM; against Cytochrome P450 1A2, above 20 µM; on Cytochrome P450 2C19, 9.42 µM; at Cytochrome P450 2C9 it was above 20 µM; on Cytochrome P450 2D6, 14.2 µM; against Cytochrome P450 3A4 [5], above 20 µM. For the same molecule, the IC50 against Cytochrome P450 2C8 was 4.97 µM; on Cytochrome P450 3A4 [6], above 20 µM; on Cytochrome P450 3A4 [7], above 20 µM. Besides, the IC50 at 72 h in [4] was above 25 µM.
For `CCC[C@@H](CCO)Nc1nc(N)nc2cnn(Cc3ncc(C4=CC5(CCN(C(C)C)CC5)C4)cc3OC)c12`, at Toll-like receptor 7, a half-maximal response (EC50) required 0.159 µM. Also, the remaining at 10 min, 0.5 µM in data set [1] worked out at 72%; in data set [2], 83%. In addition, the IC50 was 62 µM in [3]; above 20 µM on Cytochrome P450 1A2; above 20 µM against Cytochrome P450 2C19; above 20 µM at Cytochrome P450 2C9; above 20 µM against Cytochrome P450 2D6; above 20 µM on Cytochrome P450 3A4 [5]. Also, the IC50 against Cytochrome P450 2C8, at Cytochrome P450 3A4 [6] and at Cytochrome P450 3A4 [7] was above 20 µM throughout. Moreover, the IC50 at 72 h in data set [4] worked out at 16 µM.
`CCC[C@@H](CCO)Nc1nc(N)nc2cnn(Cc3ncc(C4=CC5(CCN(C6CCOCC6)CC5)C4)cc3OC)c12` registered an EC50 at Toll-like receptor 7 of 0.127 µM. For the same molecule, the remaining at 10 min, 0.5 µM in data set [1] was found to be 75%; in data set [2], 86%. Besides, the IC50 in [3] was above 100 µM; at Cytochrome P450 1A2, above 20 µM; against Cytochrome P450 2C19, above 20 µM; against Cytochrome P450 2C9, above 20 µM; against Cytochrome P450 2D6, above 20 µM; on Cytochrome P450 3A4 [5], above 20 µM. Moreover, the IC50 against Cytochrome P450 2C8, at Cytochrome P450 3A4 [6] and at Cytochrome P450 3A4 [7] was above 20 µM in each case. Besides, in data set [4], the IC50 at 72 h came to 7.2 µM.
On Toll-like receptor 7, `CCCCNc1nc(N)nc2c(C)nn(Cc3ncc(C4CCNCC4)cc3OC)c12` gave an EC50 above 5 µM. Besides, the remaining at 10 min, 0.5 µM was 95% in data set [1] and 71% in [2]. In addition, the IC50 in data set [3] is above 50 µM; against Cytochrome P450 1A2, above 20 µM; at Cytochrome P450 2C19, above 20 µM; on Cytochrome P450 2C9, above 20 µM; on Cytochrome P450 2D6, above 20 µM; against Cytochrome P450 3A4 [5], 1 µM. For the same molecule, the IC50 against Cytochrome P450 2C8 is above 20 µM; on Cytochrome P450 3A4 [6], 1.21 µM; at Cytochrome P450 3A4 [7], 1 µM. Also, the IC50 at 72 h in data set [4] was above 25 µM.
As to `CCC[C@@H](CCO)Nc1nc(N)nc2cnn(Cc3ncc(C4CC5(C4)CN(C(C)C)C5)cc3OC)c12`, at Toll-like receptor 7, a half-maximal response (EC50) required 0.626 µM. The “inhibition (INH)” value (in [3] (human); against Cytochrome P450 1A2 (human); against Cytochrome P450 2C19 (human); against Cytochrome P450 2C9 (human); against Cytochrome P450 2D6 (human); against Cytochrome P450 3A4 [5] (human)) was “Not Active” each time. Further, the “inhibition (INH)” value against Cytochrome P450 2C8 (human) is given as “Not Active”. The IC50 at 72 h in data set [4] is above 25 µM.
With `CCC[C@@H](CCO)Nc1nc(N)nc2cnn(Cc3ncc(C4=CC5(CCNCC5)C4)cc3OC)c12`, a half-maximal effect at Toll-like receptor 7 (EC50) was put at 1.91 µM. Further, the remaining at 10 min, 0.5 µM in data set [1] is 80%; in [2], 93%. The IC50 was 10 µM in [3]; above 20 µM against Cytochrome P450 1A2; above 20 µM against Cytochrome P450 2C19; above 20 µM on Cytochrome P450 2C9; above 20 µM on Cytochrome P450 2D6; above 20 µM at Cytochrome P450 3A4 [5]. Further, the IC50 at Cytochrome P450 2C8, on Cytochrome P450 3A4 [6] and on Cytochrome P450 3A4 [7] was above 20 µM in each case. For the same molecule, the 50% inhibitory concentration (IC50) at 72 h in [4] is above 25 µM.
